Source: patent publication US10336788B2, “Inhibition of cardiac fibrosis in myocardial infarction” (Moerae Matrix, Inc., priority 2014, dated 2019)
No end group written: not given here.

How the values were obtained:
C57BL/6 mice [1] = test: Histological analysis of fibrosis (Masson's trichrome, Aperio) of hearts 14 days post-AMI; type: in vivo, mouse
Protocol: Mice were euthanized by isoflurane and cervical dislocation at day 14, fixed in fresh 4% paraformaldehyde for 24 hours, paraffin embedded, processed, and stained with standard hematoxylin and eosin (H&E) and Masson's trichrome (MT). Starting at the ligation with fully faced tissue, 14-15 levels were cut on each block at 50 μm (one slide for H&E, one for MT, and 3 unstained; 50 μm skipped and then repeated). […] The area of fibrosis was analyzed in 3-4 blindly chosen hearts, each heart at 14-15 levels (point of ligation to apex), 3 sections at each level. Analysis of collagen was performed blinded to treatment on these 42-45 sections per heart. Slides were scanned using an Aperio Scanscope (Aperio Technologies, Vista, Calif.) and analyzed using Aperio Imagescope. The Algorithm Positive Pixel Count v9 was used to measure the Masson's trichrome staining of collagen (representing both fibrosis and collagen in extracellular matrix), hue value (0.66) and hue width (0.1) were used analyzed the tissue outlined using the pen tool. Each section was analyzed and exported. The N positive/N total value (representing the % collagen of the entire section) was used to determine a weighted average for each slide.
Hearts were obtained from AMI mice and histologically analyzed for fibrosis in Masson's trichrome stained sections in a systemic manner (FIG. 2A).

C57BL/6 mice [2] = test: Survival analysis (Kaplan-Meier) after permanent LAD ligation or daily peptide; type: in vivo, mouse
From the text: Nature Medicine. […] Nature. 2012; 485:593-8]. […] Proc Natl Acad Scie USA. […] Circulation Res. 2009; 105:80-8].
SigmaPlot (Systat Software, Inc., San Jose, Calif.) was used to determine significant statistical differences using a Log-rank (Mantel-Cox) test to determine differences in survival or a Kruskal-Wallis one-way ANOVA for both in vivo and in vitro studies at each terminal time point in experiments run in parallel. If significance was reached (p<0.05), a post-hoc all pairwise Multiple Comparison Procedures (Tukey Test) was performed between each of the groups to determine significance. Significance was defined as p<0.05.

HL1 cells = test: Caspase 3/7 activity in HL1 cells challenged with 1% hypoxia; type: cell-based, mouse; conditions: 100 μM, 12 hours
Protocol: H9C2 is a myoblast cell line derived from rat myocardium obtained from ATCC® (CRL-1446, ATCC, Manassas, Va.) and cultured according to the recommended protocols. Briefly, cells were maintained at 37° C. with 5% CO2 in DMEM supplemented with 10% fetal bovine serum and antibiotics (100 U/ml penicillin, […] streptomycin) and split at a ratio of 1:4 using 0.05% trypsin every 36 hours. […]
Cells were rinsed in PMS and grown in DMEM (cat. #11966-025, Gibco) for 2 hours prior to initiating hypoxia (simulated ischemia). […] Three different time points were adopted for each of the three cell lines according to the severity of cell death under hypoxia determined by LDH release: for H9C2 cell line: 8 hr; 16 hr; 24 hr; for HL-1 cell line: 4 hr; 8 hr; 12 hr; for cardiac fibroblast cell line: 16 hr; 32 hr; 48 hr.
Cell death was first determined using an LDH release assay (cat. #630117, Clontech), according to the manufacturer's instructions. […] Caspase 3/7 activity was next determined using a commercial Caspase 3/7 activity kit (Cat. #G8091, Promega, Madison, Wis. 53711) in a 384 well plate (Cat. #781903, Greiner bio-one) according to the manufacturer's instructions. […] The resulting cell lysates (25 μl, with 0.6 ug total protein) and Caspase-Glo 3/7 Reagent were added to each well in a 1:1 ratio and the luminescence was read (CLARIOstar, BMG LABTECH GmbH). […]

Sequence: YARAAARQARAKALARQLGVAA [MMI-0100]
- histology at the site of infarction (myocyte sparing within scar) (C57BL/6 mice [1]; AMI mice treated with MMI-0100, AMI alone generally all fibrotic): islands of viable myocytes
- fibrosis distant to the site of ischemia (histological sections) (C57BL/6 mice [1]; AMI mice treated with MMI-0100 vs AMI): not found to the same extent
- less fibrosis than untreated AMI mice (C57BL/6 mice [1]; AMI mice, 50 μg/kg/day from 30 minutes post-AMI, day 14): 50%
- fibrosis, area staining blue (Masson's trichrome collagen) (C57BL/6 mice [1]; AMI mice, 50 μg/kg/day from 30 minutes post-AMI, day 14, untreated AMI ~21%): ~11%
- survival after AMI with or without MMI-0100 treatment (C57BL/6 mice [2]; AMI mice, daily intraperitoneal dosing, 14 days): no differences in survival
- effect on survival, MMI-0100 alone (C57BL/6 mice [2]; mice without AMI, daily MMI-0100 intraperitoneally vs PBS): did not have any effect
- caspase 3/7 activity (HL1 cells): inhibited
